Results from US20220370464A1, “COMPOSITIONS AND METHODS OF TREATING OR PREVENTING OCULAR INFECTIONS WITH FILOCICLOVIR” (Microbiotix, Inc., priority 2019, published 2022).

Assay: Pharmacokinetics in immunosuppressed Syrian hamsters
Format: in vivo
Details: for detectability after administration (FIG. 5): 6 hours after administration
Method: In order to test the pharmacokinetics of filociclovir, Syrian hamsters were given either an oral (p.o. 50 mg/kg) or intravenous (i.v. 10 mg/kg) dose of filociclovir.
For i.v. administration, filociclovir was dissolved in DMSO (Sigma D2650) and then diluted with water to a final concentration of 5 mg/ml for filociclovir and 75% DMSO. The dosing solutions were prepared one day before use and stored at 4° C.
Male hamsters were purchased from Envigo (Harlan) at ˜100 g body weight. […] The animals received three injections of CP before the administration of filociclovir. Two groups of animals (12 hamsters/group) were used for the two routes of administrations. In addition, three untreated animals (the same three hamsters for both routes) served as mock controls. The p.o. and i.v. experiments were performed on two consecutive days. As the hamsters weighed approximately 100 g, (+/−10%), they were administered 1 ml and 0.2 ml for the p.o. and i.v. routes, respectively, to achieve the desired dose. For both routes, 3 hamsters were sacrificed at 0.5, 1, 3, and 6 h post dosing.
Plasma and liver samples were collected from all animals and stored at −80° C. until analyzed by LC MS as follows: • All samples and standards were processed on ice; • Standard curve is constructed with authentic compound (fresh powder DMSO reconstitution spiked into “blank” Hamster plasma) and all samples spiked with 500 ng/mL carbamezapine (Internal Standard); • Early time point samples are diluted in “blank” hamster plasma (try to attain concentrations on the standard curve); • Sample extracted with 2× sample volume with 0.1% ammonium formate in methanol (i.e. 30 μL sample+60 μL 0.1% ammonium formate in methanol); • Extracted samples centrifuged on maximum setting in microfuge; • Supernatants are analyzed by LC/MS/MS Dynamic Multiple Reaction Monitoring (DMRM) utilizing custom method.

Nc1nc2c(ncn2/C=C2/CC2(CO)CO)c(=O)[nH]1 [Filociclovir, 2-amino-9-{(Z)-[2,2-bis(hydroxymethyl)cyclopropylidene]methyl}-3,9-dihydro-6H-purin-6-one]
oral bioavailability (hamsters): good oral bioavailability
detectability after administration (FIG. 5) (i.v. 10 mg/kg): still detectable
detectability after administration (FIG. 5) (p.o. 50 mg/kg): still detectable
